From ChEMBL document CHEMBL1144741, “Review of cytotoxic cephalostatins and ritterazines: isolation and synthesis” (2008)

System: P388
Test: Antitumor activity against mouse P388 cells
Format: functional
Details: read-out: ED50 (the source's name)

| EC50 [nM] | Compound |
| --- | --- |
| 76.2 | C[C@@H]1[C@]2(O[C@H]3C=C4[C@@H]5CC[C@H]6Cc7nc8c(nc7C[C@]6(C)[C@H]5C[C@@H](O)[C@]4(C)[C@]31O)C[C@@H]1CC[C@H]3C4=C[C@@H]5O[C@]6(O[C@](C)(CO)C[C@H]6O)[C@@H](C)[C@]5(O)[C@@]4(C)[C@H](O)C[C@@H]3[C@@]1(C)C8)O[C@](C)(CO)C[C@H]2O [CEPHALOSTATIN 12] |
| 0.81 | C[C@@H]1[C@@]2(CC[C@](C)(O)CO2)O[C@H]2C=C3[C@@H]4[C@@H](O)C[C@H]5Cc6nc7c(nc6C[C@]5(C)[C@H]4C[C@@H](O)[C@]3(C)[C@]21O)C[C@@H]1CC[C@H]2C3=C[C@@H]4O[C@]5(CCC(C)(C)O5)C[C@@H]4[C@@]3(C)[C@H](O)C[C@@H]2[C@@]1(C)C7 [RITTERAZINE G] |
| 10.4 | C[C@@H]1[C@@]2(CC[C@](C)(O)CO2)O[C@H]2C=C3[C@H]4CC[C@H]5Cc6nc7c(nc6C[C@]5(C)[C@H]4C[C@@H](O)[C@]3(C)[C@]21O)C[C@@H]1CC[C@H]2C3=C[C@@H]4O[C@]5(CC[C@@](C)(O)CO5)[C@@H](C)[C@]4(O)[C@@]3(C)[C@H](O)C[C@@H]2[C@@]1(C)C7 [RITTERAZINE K] |
| 539 | C[C@H]1[C@H]2[C@H](C[C@@H]3[C@@H]4CC[C@H]5Cc6nc7c(nc6C[C@]5(C)[C@@H]4C[C@@H](O)[C@]23C)C[C@@H]2CC[C@H]3[C@H]4C[C@@H]5O[C@@]6(CCC(C)(C)O6)[C@@H](C)[C@@H]5[C@@]4(C)[C@H](O)C[C@@H]3[C@@]2(C)C7)O[C@]12CCC(C)(C)O2 [RITTERAZINE S] |
| 3.2 | CO[C@H]1c2nc3c(nc2C[C@@H]2CC[C@H]4C5=C[C@@H]6O[C@]7(O[C@](C)(CO)C[C@H]7O)[C@@H](C)[C@]6(O)[C@@]5(C)[C@H](O)C[C@@H]4[C@]21C)C[C@@]1(C)[C@@H](CC[C@H]2C4=CC[C@@H]5[C@H](C)[C@@]6(OC[C@]45C(=O)C[C@@]21O)OC(C)(C)C[C@H]6O)C3 [CEPHALOSTATIN 10] |
| 7.9 | CO[C@H]1c2nc3c(nc2C[C@@H]2CC[C@H]4C5=CC[C@@H]6[C@H](C)[C@@]7(OC[C@]56C(=O)C[C@@H]4[C@]21C)OC(C)(C)C[C@H]7O)C[C@@]1(C)[C@@H](CC[C@H]2C4=C[C@@H]5O[C@]6(O[C@](C)(CO)C[C@H]6O)[C@@H](C)[C@]5(O)[C@@]4(C)[C@H](O)C[C@@H]21)C3 [CEPHALOSTATIN 19] |
| 17.5 | C[C@@H]1[C@@]2(CC[C@](C)(O)CO2)O[C@H]2C=C3[C@@H]4[C@@H](O)C[C@H]5Cc6nc7c(nc6C[C@]5(C)[C@H]4C[C@@H](O)[C@]3(C)[C@]21O)C[C@@H]1CC[C@@H]2[C@H](CC(=O)[C@]23C[C@@H]2O[C@]4(CCC(C)(C)O4)[C@@H](C)[C@@H]2[C@]3(C)O)[C@@]1(C)C7 [RITTERAZINE D] |
| 11.1 | C[C@@H]1[C@@]2(CC[C@](C)(O)CO2)O[C@H]2C=C3[C@@H]4CC[C@H]5Cc6nc7c(nc6C[C@]5(C)[C@H]4C[C@@H](O)[C@]3(C)[C@]21O)C[C@@H]1CC[C@H]2C3=C[C@@H]4O[C@]5(CC[C@@](C)(O)CO5)[C@@H](C)[C@@H]4[C@@]3(C)[C@H](O)C[C@@H]2[C@@]1(C)C7 [RITTERAZINE L] |
| < 1.1 | C[C@@H]1[C@H]2CC=C3[C@@H]4CC[C@H]5Cc6nc7c(nc6C[C@]5(C)[C@@]4(O)CC(=O)[C@@]32CO[C@]12OC(C)(C)C[C@H]2O)C[C@@H]1CC[C@H]2C3=C[C@@H]4O[C@@]5(CC[C@](C)(O)CO5)[C@@H](C)[C@]4(O)[C@@]3(C)[C@H](O)C[C@@H]2[C@@]1(C)C7 [CEPHALOSTATIN 16] |
| 522 | C[C@H]1[C@H]2[C@H](C[C@]3(C(=O)C[C@@H]4[C@H]3CC[C@H]3Cc5nc6c(nc5C[C@@]34C)C[C@@H]3CC[C@@H]4[C@H](CC(=O)[C@]45C[C@@H]4O[C@@]7(CCC(C)(C)O7)[C@@H](C)[C@@H]4[C@]5(C)O)[C@@]3(C)C6)[C@@]2(C)O)O[C@@]12CCC(C)(C)O2 [RITTERAZINE N] |
| 14.2 | C[C@@H]1[C@@]2(CC[C@](C)(O)CO2)O[C@H]2C=C3[C@@H]4[C@@H](O)C[C@H]5Cc6nc7c(nc6C[C@]5(C)[C@H]4C[C@@H](O)[C@]3(C)[C@]21O)C[C@@H]1CC[C@@H]2[C@H](CC(=O)[C@]23C[C@@H]2O[C@@]4(CCC(C)(C)O4)[C@@H](C)[C@@H]2[C@]3(C)O)[C@@]1(C)C7 [RITTERAZINE A] |
| 4.4 | C[C@@H]1[C@H]2C[C@@H]3O[C@@]34[C@]3(O)CC[C@H]5Cc6nc7c(nc6C[C@]5(C)C3=CC(=O)[C@]24CO[C@]12OC(C)(C)C[C@H]2O)C[C@@H]1CC[C@H]2C3=C[C@@H]4O[C@]5(O[C@](C)(CO)C[C@H]5O)[C@@H](C)[C@]4(O)[C@@]3(C)[C@H](O)C[C@@H]2[C@@]1(C)C7 [CEPHALOSTATIN 14] |
| 16.7 | C[C@@H]1[C@@]2(CC[C@](C)(O)CO2)O[C@H]2C=C3[C@@H]4CC[C@H]5Cc6nc7c(nc6C[C@]5(C)[C@H]4C[C@@H](O)[C@]3(C)[C@]21O)C[C@@H]1CC[C@H]2C3=C[C@@H]4O[C@@]5(CC[C@](C)(O)CO5)[C@@H](C)[C@@H]4[C@@]3(C)[C@H](O)C[C@@H]2[C@@]1(C)C7 [RITTERAZINE M] |
| 3400 | C[C@H]1[C@H]2[C@H](C=C3[C@@H]4CC[C@H]5Cc6nc7c(nc6C[C@]5(C)[C@@H]4C[C@@H](O)[C@@]32C)C[C@@H]2CC[C@@H]3[C@H](CC(=O)[C@]34C[C@@H]3O[C@]5(CCC(C)(C)O5)[C@@H](C)[C@@H]3[C@]4(C)O)[C@@]2(C)C7)O[C@]12C[C@](C)(CO)CO2 [RITTERAZINE X] |
| 3.8 | C[C@@H]1[C@@]2(CC[C@](C)(O)CO2)O[C@H]2C=C3[C@@H]4[C@@H](O)C[C@H]5Cc6nc7c(nc6C[C@]5(C)[C@H]4C[C@@H](O)[C@]3(C)[C@]21O)C[C@@H]1CC[C@@H]2[C@H](CC(=O)[C@]23C[C@@H]2O[C@]4(C[C@H](C)C(C)(C)O4)[C@@H](C)[C@@H]2[C@]3(C)O)[C@@]1(C)C7 [RITTERAZINE E] |
| 17.8 | C[C@@H]1[C@@]2(CC[C@](C)(O)CO2)O[C@H]2C=C3[C@@H]4[C@@H](O)C[C@H]5Cc6nc7c(nc6C[C@]5(C)[C@H]4C[C@@H](O)[C@]3(C)[C@]21O)C[C@@H]1CC[C@H]2[C@H]3C[C@@H]4O[C@@]5(CCC(C)(C)O5)C[C@@H]4[C@@]3(C)C(=O)C[C@@H]2[C@@]1(C)C7 [RITTERAZINE H] |
| 4.4 | C[C@@H]1[C@H]2CC=C3[C@H]4CC[C@H]5Cc6nc7c(nc6C[C@]5(C)[C@@]4(O)CC(=O)[C@@]32CO[C@]12OC(C)(C)C[C@H]2O)C[C@@H]1CC[C@H]2C3=C[C@@H]4O[C@]5(O[C@](C)(CO)C[C@H]5O)[C@@H](C)[C@]4(O)[C@@]3(C)[C@H](O)C[C@@H]2[C@@]1(C)C7 [CEPHALOSTATIN 17] |
| 4.6 | CO[C@H]1c2nc3c(nc2C[C@@H]2CC[C@H]4C5=C[C@@H]6O[C@]7(O[C@](C)(CO)C[C@H]7O)[C@@H](C)[C@]6(O)[C@@]5(C)[C@H](O)C[C@@H]4[C@]21C)C[C@@]1(C)[C@@H](CC[C@H]2C4=CC[C@@H]5[C@H](C)[C@@]6(OC[C@]45C(=O)C[C@@H]21)OC(C)(C)C[C@H]6O)C3 [CEPHALOSTATIN 18] |
| 2200 | C[C@@H]1[C@H](C)[C@]2(OC[C@]34C(=O)C[C@@H]5[C@@H](CC[C@H]6Cc7nc8c(nc7C[C@@]65C)C[C@@H]5CC[C@@H]6[C@H](CC(=O)[C@]67C[C@@H]6O[C@@]9(CCC(C)(C)O9)[C@@H](C)[C@@H]6[C@]7(C)O)[C@@]5(C)C8)[C@H]3C[C@H](O)[C@@H]4[C@H]2C)OC1(C)C [RITTERAZINE Z] |
| 2380 | C[C@H]1[C@H]2[C@H](C[C@]3(C(=O)C[C@@H]4[C@H]3CC[C@H]3Cc5nc6c(nc5C[C@@]34C)C[C@@H]3CC[C@@H]4[C@H](CC(=O)[C@]45C[C@@H]4O[C@@]7(CCC(C)(C)O7)[C@@H](C)[C@@H]4[C@]5(C)O)[C@@]3(C)C6)[C@@]2(C)O)O[C@]12CCC(C)(C)O2 [RITTERAZINE O] |
| 26.2 | C[C@@H]1[C@H]2C[C@@H]3O[C@@]34[C@]3(O)CC[C@H]5Cc6nc7c(nc6C[C@]5(C)C3=CC(=O)[C@]24CO[C@]12OC(C)(C)[C@@H](C)[C@H]2O)C[C@@H]1CC[C@H]2C3=C[C@@H]4O[C@]5(O[C@](C)(CO)C[C@H]5O)[C@@H](C)[C@]4(O)[C@@]3(C)[C@H](O)C[C@@H]2[C@@]1(C)C7 [CEPHALOSTATIN 15] |
| 0.17 | C[C@@H]1[C@@]2(CC[C@](C)(O)CO2)O[C@H]2C=C3[C@@H]4[C@@H](O)C[C@H]5Cc6nc7c(nc6C[C@]5(C)[C@H]4C[C@@H](O)[C@]3(C)[C@]21O)C[C@@H]1CC[C@H]2[C@H]3C[C@@H]4O[C@@]5(CCC(C)(C)O5)C[C@@H]4[C@@]3(C)[C@H](O)C[C@@H]2[C@@]1(C)C7 [RITTERAZINE B] |
| 522 | C[C@H]1[C@H]2[C@H](C=C3[C@@H]4CC[C@H]5Cc6nc7c(nc6C[C@]5(C)[C@@H]4C[C@@H](O)[C@@]32C)C[C@@H]2CC[C@@H]3[C@H](CC(=O)[C@]34C[C@@H]3O[C@@]5(CCC(C)(C)O5)[C@@H](C)[C@@H]3[C@]4(C)O)[C@@]2(C)C7)O[C@]12CC[C@](C)(O)CO2 [RITTERAZINE T] |
| 819 | C[C@H]1[C@H]2[C@H](C[C@@H]3[C@@H]4CC[C@H]5Cc6nc7c(nc6C[C@]5(C)[C@H]4C[C@@H](O)[C@]23C)C[C@@H]2CC[C@@H]3[C@@H](CC(=O)[C@]34C[C@@H]3O[C@@]5(CCC(C)(C)O5)[C@@H](C)[C@@H]3[C@]4(C)O)[C@@]2(C)C7)O[C@@]12CCC(C)(C)O2 [RITTERAZINE P] |
